The subject of series [1] is allodynia model. Briefly: Allodynia test (intrathecal nociceptin, tactile stimulation). Format: in vivo, Mice. The following applies: Mus musculus, read-out: Allodynia M.E.D. (minimum effective dose). Here is the method: Mice (Crj, ICR, 4-week-old, male) were intrathecally administered with nociceptin (50 pg/5 μl) without anesthesia. For 20 min after administration and at 5 min intervals, an area from lateral region to tail of the mice was rubbed with a brush and the response of the mice was observed. The evaluation followed the criteria of 0; no change, 1; run or cry upon tactile stimulation, and 2; cry loud or dash away upon tactile stimulation. The test compound was suspended in a 0.5% MC solution and orally administered 60 min before nociceptin administration. The significant difference of the score of each administration group at 20 min after nociceptin administration from the group administered with solvent was analyzed with Mann-Whitny U-test.

Series [2] concerns the target T1, μ receptor (Rattus norvegicus, UniProt P33535).
T1 construct: Rat cerebrum membrane standard sample; from tissue; host or cells: rat cerebrum membranes
Briefly: μ receptor binding assay ([3H]DAMGO). Conditions: for Ki: calculated from IC50 and Kd of [3H]DAMGO; for IC50: rat cerebrum membrane, [3H]DAMGO 1 nM. Here is the method:
Rat cerebrum membrane standard sample (final concentration 0.755 mg·protein/ml), [^3H]DAMGO (Try-D-Ala-Gly-NMe-Phe-Gly-ol) [diluted with Tris buffer (50 mM Tris-HCl, 0.1 mM p-APMSF, 2 mg/ml BSA (pH=7.4)) to a final concentration of 1 nM] and test compound (diluted with Tris buffer to a final concentration of 10 nM-10 μM) were mixed, and the mixture was incubated at room temperature for 90 min. The membrane was recovered on a G/F-B filter (same as above) using a cell harvester and the reaction was stopped. After washing 3 times, the filter was dried at 42° C. for 1 hr. A scintillation solution (same as above) was added and the radioactivity (same as above) was assayed.
The nonspecific binding was the binding in the presence of 10 μM naloxone and the difference between the total binding and nonspecific binding was taken as the specific binding. IC50 was calculated from inhibition of specific binding at each concentration of the compound, and Ki value of the test compound was calculated from this value and Kd value of [^3H]DAMGO.

Series [3] concerns Mice. Briefly: Hot-plate test. The series is classed as in vivo. Conditions: Mus musculus, 1 h, oral, 60 min after administration, 55.5°C, read-out: Hot-plate M.E.D. (minimum effective dose). Here is the method:
Mice (Crj, ICR, 4-week-old, male) were placed on a hot-plate (temperature 55.5±0.5° C.) and the time until the mice jumped and tried to run away was recorded. The mice were grouped according to the time and body weight so that the groups were evenly membered. The test compound was suspended in a 0.5% methylcellulose (MC) solution and orally administered to mice. After 60 min, the mice were again placed on a hot-plate and the time until they licked the hindlimb or jumped and tried to run away was recorded. The significant difference from the group administered with solvent was analyzed with ANOVA followed by Dunnett two-tailed test.

Series [4] concerns the target T2, ORL-1 receptor (Homo sapiens, UniProt P41146).
T2 construct: expressed in transfected cells
Briefly: ORL1 receptor binding assay ([3H]nociceptin). Conditions: for Ki: calculated from IC50 and Kd of [3H]nociceptin; for IC50: membrane of human ORL-1 expression cells, [3H]nociceptin 0.5 nM. The procedure: ORL1 Receptor Binding Assay
A cell membrane suspension obtained from human ORL-1 expression cells was adjusted with Tris buffer [50 mM Tris, 2 mM EDTA, 0.1 mM (p-Amidinophenyl)methanesulfonyl Fluoride Hydrochloride (p-APMSF), 2 mg/ml BSA] to membrane protein amount of about 25 μg/ml (2.5 μg/well). This was mixed with [^3H]nociceptin (diluted with Tris buffer to a final concentration of 0.5 nM) and test compound (diluted with Tris buffer to a final concentration of 10 nM-10 μM), and the mixture was incubated at room temperature for 60 min. The membrane was recovered on a G/F-B filter (Packard, Unifilter 96GF/B) using a cell harvester and the reaction was stopped. After washing 3 times, the filter was dried at 42° C. for 1 hr. A scintillation solution (Packard, microscint-20) was added and the radioactivity (Packard, Top count A9912V) was assayed.
The nonspecific binding was the binding in the presence of 1 μM nociceptin and the difference between the total binding and nonspecific binding was taken as the specific binding. IC50 was calculated from inhibition of specific binding at each concentration of the compound, and Ki value of the test compound was calculated from this value and Kd value of [^3H]nociceptin.

Setting [5] is: mice, oral, 60 min before nociceptin 50 pg i.t., score at 20 min.

These results are taken from patent US6410561B1, “Amide derivatives and nociceptin antagonists” (Japan Tobacco Inc., priority 1998, dated 2002).

Read-outs that look alike come from different tables or passages of the source.

T2 sequence (P41146 whole entry): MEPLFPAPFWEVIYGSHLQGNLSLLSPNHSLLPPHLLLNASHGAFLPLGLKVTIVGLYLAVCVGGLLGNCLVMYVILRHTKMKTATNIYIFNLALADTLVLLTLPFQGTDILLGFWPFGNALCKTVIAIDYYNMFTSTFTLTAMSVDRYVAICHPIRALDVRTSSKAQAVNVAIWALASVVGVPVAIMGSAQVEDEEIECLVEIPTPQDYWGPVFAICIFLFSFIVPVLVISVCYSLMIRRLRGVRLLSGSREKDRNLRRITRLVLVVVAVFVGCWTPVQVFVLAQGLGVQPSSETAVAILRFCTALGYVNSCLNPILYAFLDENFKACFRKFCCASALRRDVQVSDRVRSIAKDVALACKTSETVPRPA
T1 sequence (P33535 whole entry): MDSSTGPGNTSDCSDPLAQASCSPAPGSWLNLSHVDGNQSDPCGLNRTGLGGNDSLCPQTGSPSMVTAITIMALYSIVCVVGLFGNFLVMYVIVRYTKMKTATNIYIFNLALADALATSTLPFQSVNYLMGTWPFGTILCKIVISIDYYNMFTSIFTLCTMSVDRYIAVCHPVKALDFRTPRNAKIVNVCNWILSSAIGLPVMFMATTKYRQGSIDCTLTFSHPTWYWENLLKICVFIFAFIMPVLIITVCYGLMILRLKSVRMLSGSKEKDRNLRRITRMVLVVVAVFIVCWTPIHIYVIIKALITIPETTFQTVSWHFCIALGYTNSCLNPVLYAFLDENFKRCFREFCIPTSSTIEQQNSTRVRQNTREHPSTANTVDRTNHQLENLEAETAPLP

Compound `Cc1cc(N)c2cc(NC(=O)c3ccccc3COc3ccc(Cl)cc3Cl)ccc2n1.Cl` [Example 2, N-(4-amino-2-methyl-6-quinolyl)-2-[(2,4-dichlorophenoxy)methyl]benzamide hydrochloride] yielded a melting point of 262 °C. Also, in series [1] (setting [5]), the minimal effective dose was 0.3 mg/kg. For the same compound, in series [2], the Ki was 497 nM and the IC50 is 1330 nM. Moreover, the minimal effective dose in series [3] was 1 mg/kg. In addition, in series [4], the Ki is 4 nM and the IC50 is 70 nM.

`COc1ccc(OCc2ccccc2C(=O)Nc2ccc3nc(C)cc(N)c3c2)cc1.Cl` [Example 4, N-(4-amino-2-methyl-6-quinolyl)-2-[(4-methoxyphenoxy)methyl]benzamide hydrochloride]: the melting point came to 276 °C. In addition, in series [1] (po), the minimal effective dose is under 1 mg/kg. Also, in series [2], the Ki is 453 nM and the IC50 is 1260 nM. For the same compound, the minimal effective dose in series [3] was under 3 mg/kg.

Turning to `Cc1cc(N)c2cc(NC(=O)c3ccccc3COc3ccc([N+](=O)[O-])cc3)ccc2n1` [Example 7, N-(4-amino-2-methyl-6-quinolyl)-2-[(4-nitrophenoxy)methyl]benzamide], the melting point was determined as 148 °C. In addition, the minimal effective dose in series [1] (setting [5]) came out at 0.3 mg/kg. Further, in series [2], the Ki was 346 nM and the concentration for half-maximal inhibition (IC50) was 960 nM. Besides, in series [3], the minimal effective dose stood at 3 mg/kg.

In the case of `Cc1cc(N)c2cc(NC(=O)c3ccccc3COc3ccc(Cl)cc3)ccc2n1.Cl` [Example 11, N-(4-amino-2-methyl-6-quinolyl)-2-[(4-chlorophenoxy)methyl]benzamide hydrochloride], the melting point amounted to 245 °C. Moreover, the minimal effective dose in series [1] (setting [5]) is 0.3 mg/kg. In series [2], the Ki is 424 nM and the IC50 was 1120 nM. For the same compound, in series [3], the minimal effective dose turned out to be 3 mg/kg. In series [4], the Ki is 3 nM and the 50% inhibitory concentration (IC50) is 60 nM.

The compound `CC(=O)c1ccc(OCc2ccccc2C(=O)Nc2ccc3nc(C)cc(N)c3c2)cc1.Cl` [Example 12, N-(4-amino-2-methyl-6-quinolyl)-2-[(4-acetylphenoxy)methyl]benzamide hydrochloride] gave a melting point of 270 °C. Moreover, the minimal effective dose in series [1] (setting [5]) was 0.3 mg/kg. Besides, in series [2], the Ki was 254 nM and the IC50 amounted to 670 nM. In addition, the minimal effective dose in series [3] was 3 mg/kg. Moreover, in series [4], the inhibitory constant (Ki) was 8 nM and the IC50 was found to be 160 nM.

Regarding `Cc1cc(N)c2cc(NC(=O)c3ccccc3COc3ccc(C#N)cc3)ccc2n1.Cl` [Example 16, N-(4-amino-2-methyl-6-quinolyl)-2-[(4-cyanophenoxy)methyl]benzamide hydrochloride], the melting point was determined as 286 °C. The minimal effective dose in series [1] (setting [5]) turned out to be 0.1 mg/kg. Further, in series [2], the inhibitory constant (Ki) is 259 nM and the IC50 stood at 690 nM. Further, in series [3], the minimal effective dose came out at 3 mg/kg. For the same compound, in series [4], the Ki was 6 nM and the IC50 stood at 110 nM.

In turn, `Cc1ccc(OCc2ccccc2C(=O)Nc2ccc3nc(C)cc(N)c3c2)cc1.Cl` [Example 17, N-(4-amino-2-methyl-6-quinolyl)-2-[(4-methylphenoxy)methyl]benzamide hydrochloride] had a melting point of 255 °C. Besides, the minimal effective dose in series [1] (po) amounted to 0.3 mg/kg. In series [2], the inhibition constant Ki is 385 nM and the IC50 stood at 1020 nM. Besides, the minimal effective dose in series [3] came to 1 mg/kg. For the same compound, the IC50 in series [4] was determined as 130 nM.

`Cc1cc(N)c2cc(NC(=O)c3ccccc3COc3cccc([N+](=O)[O-])c3)ccc2n1.Cl` [Example 19, N-(4-amino-2-methyl-6-quinolyl)-2-[(3-nitrophenoxy)methyl]benzamide hydrochloride] had a melting point of 245 °C. In addition, in series [1] (setting [5]), the minimal effective dose was 0.1 mg/kg. Also, in series [2], the inhibition constant (Ki) was 388 nM and the IC50 came to 1030 nM. In series [3], the minimal effective dose amounted to 3 mg/kg. Further, in series [4], the inhibition constant Ki is 9 nM and the IC50 amounted to 160 nM.

`Cc1cc(N)c2cc(NC(=O)c3ccccc3COc3ccc(Cl)c(Cl)c3)ccc2n1.Cl` [Example 26, N-(4-amino-2-methyl-6-quinolyl)-2-[(3,4-dichlorophenoxy)methyl]benzamide hydrochloride] returned a melting point of 223 °C. The minimal effective dose in series [1] (setting [5]) stood at 0.3 mg/kg. In series [2], the Ki was 479 nM and the IC50 worked out at 1220 nM. Also, the minimal effective dose in series [3] worked out at 1 mg/kg. Besides, in series [4], the Ki is 4 nM and the half-maximal inhibitory concentration (IC50) was 80 nM.

The compound `Cc1cc(N)c2cc(NC(=O)c3ccccc3COc3ccc(C(C)(C)C)cc3)ccc2n1.Cl` [Example 29, N-(4-amino-2-methyl-6-quinolyl)-2-[(4-tert-butylphenoxy)methyl]benzamide hydrochloride] came in with a melting point of 268 °C. For the same compound, the minimal effective dose in series [1] (setting [5]) was over 0.3 mg/kg. In addition, in series [2], the Ki was 414 nM and the 50% inhibitory concentration (IC50) is 1050 nM. The minimal effective dose in series [3] came out at 3 mg/kg. Besides, in series [4], the Ki was 9 nM and the IC50 was 160 nM.

`COc1ccc(CCc2ccccc2C(=O)Nc2ccc3nc(C)cc(N)c3c2)cc1.Cl` [Example 84] registered a melting point of 285 °C. Besides, the minimal effective dose in series [1] (setting [5]) is under 3 mg/kg. In series [2], the Ki is 419 nM and the IC50 was found to be 1110 nM. The minimal effective dose in series [3] was over 10 mg/kg. Further, in series [4], the Ki was 129 nM and the 50% inhibitory concentration (IC50) is 2520 nM.

`CCc1ccc(OCc2ccccc2C(=O)Nc2ccc3nc(C)cc(N)c3c2)c(Cl)c1.Cl` [Example 89, N-(4-amino-2-methyl-6-quinolyl)-2-[(2-chloro-4-ethylphenoxy)methyl]benzamide hydrochloride] returned a melting point of 245.9 °C. In addition, in series [1] (setting [5]), the minimal effective dose came out at 0.3 mg/kg. Further, in series [2], the Ki is 548 nM and the concentration for half-maximal inhibition (IC50) stood at 1460 nM. Besides, in series [3], the minimal effective dose stood at 1 mg/kg. Moreover, in series [4], the Ki is 6 nM and the IC50 stood at 130 nM.
